Biological target: T1, SARS-CoV-2 RdRp (Severe acute respiratory syndrome coronavirus 2, UniProt P0DTD1)
T1 construct: The SARS-CoV-2 reporter and NSP12, NSP7, and NSP8 genes were cloned into pcDNA3.1(+) plasmid vectors; expressed in transfected cells; host or cells: 293T (HEK-293T) cells, pcDNA3.1(+) plasmids
Type: cell-based

`CCC(CC)COC(=O)[C@H](C)N[P@](=O)(OC[C@H]1O[C@@](C#N)(c2ccc3c(N)ncnn23)[C@H](O)[C@@H]1O)Oc1ccccc1` [remdesivir] was tested. Which “effect on polymerase activity, in words” value did it give?
The value was “dose-dependent reduction in polymerase activity”.
